Article doi:10.1101/2023.05.15.540887, “Comparative analysis of drug-like EP300/CREBBP acetyltransferase inhibitors” (bioRxiv, 2023)

Experiments:
[1] = test system: EP300/CREBBP-dependent H3K18Ac in MCF-7 cells; assay: Cellular photouncaging, H3K18Ac Western blot in MCF-7 cells; assay type: cell-based, human; conditions: MCF-7, 10 or 25 μM
Source text: One potential reason EP300/CREBBP acetyltransferase inhibitors are not actively being evaluated in clinical trials is on-target toxicity.[10] Thus, these molecules may benefit from strategies to direct them more specifically to malignant – as opposed to healthy – tissues. Light-activated drug release provides one potential approach.[38] […] Considering the studies above we wondered: could the high potency of the CPI-1612 scaffold enable conditional release of an active EP300/CREBBP inhibitor? To explore this, we prepared a photocaged CPI-1612 analogue (4) (Fig. 5a). […] Parent inhibitor 5 was synthesized based on the published route[40] and derivatized with nitrobenzyl chloroformate to produce the photocaged analogue 4 (Scheme S1). […] To test whether active EP300/CREBBP inhibitor release could be controlled by light, we incubated cells with […] (10 or 25 μM), washed to remove inhibitor in media, and irradiated them for 1 min at 302 nm (Fig. 5e). Cells were then incubated for 3 h, harvested, and assessed for changes in EP300/CREBBP-dependent H3K18Ac. […] Although beyond the scope of the current study, we envision targeted release of potent EP300/CREBBP inhibitors could find utility in malignancies already treated using phototherapy, such as head and neck cancers,[41] as well as valuable applications in basic science.[42] […]

[2] = HPLC analysis of photocaged inhibitor release (photodeprotection); assay type: physicochemical; conditions: 302 nm or 365 nm light, aqueous solution or buffer
Source text: One potential reason EP300/CREBBP acetyltransferase inhibitors are not actively being evaluated in clinical trials is on-target toxicity.[10] Thus, these molecules may benefit from strategies to direct them more specifically to malignant – as opposed to healthy – tissues. Light-activated drug release provides one potential approach.[38] […] Considering the studies above we wondered: could the high potency of the CPI-1612 scaffold enable conditional release of an active EP300/CREBBP inhibitor? To explore this, we prepared a photocaged CPI-1612 analogue (4) (Fig. 5a). […] Parent inhibitor 5 was synthesized based on the published route[40] and derivatized with nitrobenzyl chloroformate to produce the photocaged analogue 4 (Scheme S1). […] Cells were then incubated for 3 h, harvested, and assessed for changes in EP300/CREBBP-dependent H3K18Ac. […]
To assess the ability of 4 to undergo photodeprotection to form 5 in the presence of UV light, we analyzed model reactions by HPLC. […] To assess conversion of 4 to 5, irradiated reactions and controls were analyzed using an Agilent 1260 Infinity HPLC equipped with a Phenomenenex Kinetex C18 column (2.6 μm, 100 Angstrom, 100 × 4.6 mm inner diameter, H20-280322) and UV detector with monitoring at 280 nm. […]

EP300 catalytic domain = target: T1, EP300 catalytic domain (Homo sapiens, UniProt Q09472); assay: TR-FRET assay of EP300-catalyzed acetylation of a histone H3 peptide; assay type: biochemical; conditions: 50 nM H3 peptide and 200 μM acetyl-CoA
T1 construct: disrupt the activity of EP300 catalytic domain; purchased Enzo BML-SE451-0100
T1 sequence (Q09472 1287-1663 limits assumed): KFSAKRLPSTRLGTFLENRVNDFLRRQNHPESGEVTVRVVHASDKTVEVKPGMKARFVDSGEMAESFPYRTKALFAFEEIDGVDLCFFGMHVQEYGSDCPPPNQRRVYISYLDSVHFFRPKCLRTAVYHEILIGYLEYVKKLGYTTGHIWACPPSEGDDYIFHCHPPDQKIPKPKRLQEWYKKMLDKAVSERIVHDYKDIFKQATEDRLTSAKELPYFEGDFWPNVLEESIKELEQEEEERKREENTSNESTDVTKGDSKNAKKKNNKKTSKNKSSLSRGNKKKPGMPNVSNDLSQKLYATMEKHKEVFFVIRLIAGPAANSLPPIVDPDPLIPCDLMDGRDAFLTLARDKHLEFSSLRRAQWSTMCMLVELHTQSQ
Procedure: Reaction mixtures were incubated for 1 h prior to addition of Alexa Fluor 647-labeled anti-H3K9Ac antibody and Europium-labeled streptavidin.
Briefly, an enzyme mix was made consisting of EP300 (100 nM; Enzo BML-SE451-0100) in assay buffer (25 mM HEPES pH 7.5, 150 mM NaCl, 2 mM DTT, 0.0001% Tween-20, 0.1 mg/m acetylated bovine serum albumin). This enzyme mix (3 μL) was added to white solid-bottom 1536-well plates (Greiner 789175) using a BioRaptr 2.0 Flying Reagent Dispenser (Let’s Go Robotics). […] Plates were read using a PHERAstar FSX microplate reader with HTRF optical module (BMG LabTech) and normalized to no enzyme (negative) and DMSO (neutral) controls. Standard curves were generated through titration of peptide substrate and acetylated peptide [Lys(Ac)9]-Histone H3 (1-21; AnaSpec AS-64191) to benchmark activity. […] Replicate activity measurements in the presence of inhibitors were averaged and half-maximal inhibition values calculated from the nonlinear fit of dose-response data using GraphPad Prism 9.

[3] = design: method as in ref 40 = [40]; 40. Wilson J. E.; Brucelle F.; Levelle J. R. P300/CBP HAT inhibitors . WO2019161162A1 , 2019 .; conditions: patent literature; cited from earlier work

| photodeprotection to 5 (HPLC reaction monitoring) [2] | decrease in EP300/CREBBP inhibitor potency of caged relative to uncaged analogue 5 (EP300 catalytic domain) | SMILES | change in H3K18Ac, treated and exposed to light (UV) ([1]; 302 nm 1 min, then 3 h) | change in H3K18Ac, treated only (no irradiation) ([1]; no UV) | in vivo antitumor activity [3] |
| --- | --- | --- | --- | --- | --- |
| facile conversion of 4 to 5 | ~ 50 fold | COc1cc(COC(=O)N(C[C@@H](C)c2ccc(C#N)cc2)C(C(=O)Nc2ccc(-c3cnn(CC(=O)N4CCCC4)c3)cn2)c2ccccc2)c([N+](=O)[O-])cc1OC (some centres unmarked) [Compound 4] | clear decreases in H3K18Ac | no such effect |  |
|  |  | C[C@H](CNC(C(=O)Nc1ccc(-c2cnn(CC(=O)N3CCCC3)c2)cn1)c1ccccc1)c1ccc(C#N)cc1 (some centres unmarked) [Compound 5] |  |  | potent in vivo antitumor activity |
